One compound from paper PMC6433685, “Histone deacetylase inhibitor LMK235 attenuates vascular constriction and aortic remodelling in hypertension” (Journal of Cellular and Molecular Medicine, 2019) can be followed below.

SMILES strings stand for the structures.

The target of one data set is T1, HDAC6 (Homo sapiens, UniProt Q9UBN7).
T1 construct: purchased BPS Bioscience 50076
Nature of the data set: HDAC6 fluorogenic enzyme assay kit (BPS Bioscience), cell-free. Format: biochemical. The following applies: 0.001-10 μmol/L inhibitor.

The target of the next data set is T2, HDAC8 (Homo sapiens, UniProt Q9BY41).
T2 construct: purchased BPS Bioscience 50068
Nature of the data set: HDAC8 fluorogenic enzyme assay kit (BPS Bioscience), cell-free. Format: biochemical. The following applies: 0.001-10 μmol/L inhibitor.

A further data set has as its target T3, HDAC9 (Homo sapiens, UniProt Q9UKV0).
T3 construct: purchased BPS Bioscience 50069
Briefly: HDAC9 fluorogenic enzyme assay kit (BPS Bioscience), cell-free. Type of data set: biochemical. The following applies: 0.001-10 μmol/L inhibitor.

In data set [1] the test system is angiotensin II‐induced hypertensive mice. Briefly: Systolic BP (tail-cuff) in angiotensin II-infusion mice. The following applies: Ang II-infusion mice; 1 mg/kg/day i.p. for 7 days. Type of data set: in vivo, CD‐1 mice. On the procedure:
(§1) All animal procedures were approved by the Animal Experimental Committee of Chonnam National University Medical School (CNU IACUC‐H‐2014‐47) and carried out in accordance with the Guide for the Care and Use of Laboratory Animals (US National Institutes of Health Publications, 8th edition, 2011). CD‐1 mice (8 weeks old, 30‐35 g) were used in this study. Hypertension was induced by angiotensin II (Ang II, 1.3 mg/kg/day) infusion using 14‐day micro‐osmotic pumps (Alzet, model 1002; infusion rate of 0.25 μL/h) or saline alone. Ang II osmotic pumps were implanted subcutaneously after the injection of ketamine (120 mg/kg) and xylazine (6.2 mg/kg). One week after Ang II infusion, mice were administered LMK235 (1 or 3 mg/kg/day) or vehicle (dimethylsulphoxide [DMSO]) via intraperitoneal injection for 7 days. Mice were divided into three groups (n = 10‐12 per group): sham + vehicle, Ang II + vehicle, and Ang II + LMK235.
(§2) Systolic BP was measured by the tail‐cuff method (Visitech Systems, BP‐2000). Animals (mice and rats) were trained to allow for the measuring of BP before administration of the drug. Animals were trained to enter the holder at the same time more than three times a week to measure BP. For angiotensin II‐mice, systolic BP was measured when the mice were awake the day before they are killed. For SHRs, systolic BP was measured daily for 2 weeks.

Data set [2] relates to A10 cells. Briefly: MTT cell viability assay in A10 cells. Type of data set: cell-based, rat. The following applies: up to 1000 nmol/L, 24 hours. On the procedure: (§3) A10 vascular smooth muscle cells (VSMCs) were incubated with Dulbecco's modified Eagle medium (DMEM) with 4500 mg/L glucose containing 10% foetal bovine serum (FBS). Passages were carried out every 2 or 3 days. VSMCs were maintained in DMEM in the presence of 10% FBS with low glucose (1000 mg/L). Human umbilical vein endothelial cells (HUVECs) were obtained from Gibco (Waltham, MA, USA). HUVECs were grown in an endothelial cell basal medium (EBM) with EGM‐2 bullet kit (Lonza, Walkersville, MD) and maintained at 37°C under 5% CO2. Cells were cultured for 5‐7 passages.
Cell viability was tested by the MTT [3‐(4,5‐dimethylthiazol‐2‐yl)‐2,5‐diphenyl tetrazolium bromide] assay. A10 cells were seed into 24‐well culture dishes and serum‐starved overnight. Cells were treated with LMK235 or vehicle for 24 hours at the indicated concentrations. MTT reagent was added to the medium for 2 hours and then dissolved in DMSO, and the absorbance was measured at 570 nm. For assessing cell proliferation, A10 cells were transfected with pCMV‐SPORT6‐CaMKIIα in a dose‐dependent manner. The MTT assay was performed as described above.
(Tetrazolium dyes change colour on reduction, which living cells bring about.)

For data set [3], the system named is spontaneously hypertensive rats (SHRs). Briefly: Systolic BP (tail-cuff) in spontaneously hypertensive rats. Format: in vivo. On the procedure:
For the essential hypertension animal experiment, SHRs were used. The SHR is the most used model animal model for hypertension and is generally regarded as an essential hypertension model.13 SHRs (6 weeks old, approximately 170 g) were purchased from Charles River (Yokohama, Japan). Rats were intraperitoneally administered LMK235 or vehicle every 3 days for 2 weeks (n = 4 per group).
as §2

For data set [4], the system named is cyclin D1, E2F3, p21, CaMKIIα mRNA. Nature of the data set: Cell cycle gene and CaMKIIα mRNA (qRT-PCR) in aortas of angiotensin II-infusion mice. Type of data set: in vivo. The following applies: Ang II-infusion mice. Here is the method: as §1
(§4) Total RNA from aortic tissue was isolated with TRIzol reagent (Invitrogen Life Technologies), and 1 μg of RNA was used for the reverse transcription reaction with TOPscript RT DryMIX (Enzynomics, South Korea). Quantification of mRNA levels was performed with the SYBR Green PCR kit (Enzynomics, South Korea).

Another data set addresses T4, HDAC7 (Homo sapiens, UniProt Q8WUI4).
T4 construct: purchased BPS Bioscience 50067
Nature of the data set: HDAC7 fluorogenic enzyme assay kit (BPS Bioscience), cell-free. Format: biochemical. The note with it: 0.001-10 μmol/L inhibitor.

In data set [5] the test system is A10 cells. Briefly: qRT-PCR in CaMKIIα-transfected A10 cells. Format: cell-based, rat. On the procedure:
A10 cells were seeded into 12‐well dishes. A10 cells were transfected with the indicated concentrations of pCMV‐SPORT6‐CaMKIIα. After 24 hours of transfection, total RNA was extracted and quantitative real time polymerase chain reaction (qRT‐PCR) was performed. For knockdown of HDAC5, rat HDAC5 siRNA or sicontrol was used in A10 cells using RNAiMAX reagent according to the manufacturer's guidelines. A concentration of 100 nmol/L of siRNA was used.
as §4

Another data set deals with T5, HDAC1 (Homo sapiens, UniProt Q13547).
T5 construct: purchased BPS Bioscience 50061
Briefly: HDAC1 fluorogenic enzyme assay kit (BPS Bioscience), cell-free. Format: biochemical. The note with it: 0.001-10 μmol/L inhibitor.

The next data set relates to HUVECs. Briefly: Nitric oxide production in HUVECs (DAF-FM DA fluorescence). Format: cell-based, Human. The note with it: 1 μmol/L, 24 h. Here is the method:
as §3
We used a nitric oxide‐sensitive fluorescence probe, 4‐amino‐5‐methylamino‐2′,7′‐difluorescein diacetate (DAF‐FM DA, Cayman), for nitric oxide detection. HUVECs were seeded on coverslips in 12‐well plates (1.5 × 10^5/mL). Cells, serum‐starved with EBM for 16 hour, were treated with LMK235 (1 μmol/L) or L‐NAME (250 μmol/L) for 24 hour and incubated with DAF‐FM DA (2.5 μmol/L) for 45 minutes. Next, the cells were fixed with 70% ethanol for 45 minutes and mounted using Prolog Gold antifade reagent and DAPI (Invitrogen, USA).

The test system of data set [6] is angiotensin II‐infusion mice. Nature of the data set: Aortic wall thickness (H&E) in angiotensin II-infusion mice. Type of data set: in vivo. The following applies: Ang II-infusion mice; 3 mg/kg/day for 1 week. On the procedure: as §1
The paraffin‐embedded tissues were cut into 3‐μm‐thick sections, deparaffinized with xylene and then rehydrated with graded alcohol. Haematoxylin and eosin (H&E) staining was performed as described, with slight modifications.15 The arterial wall thickness was measured using NIS Elements Software (Nikon, Japan).

Another data set deals with T6, HDAC2 (Homo sapiens, UniProt Q92769).
T6 construct: purchased BPS Bioscience 50062
Nature of the data set: HDAC2 fluorogenic enzyme assay kit (BPS Bioscience), cell-free. Type of data set: biochemical. The note with it: 0.001-10 μmol/L inhibitor.

The subject of the next data set is AT1 and ACE1 mRNA. Nature of the data set: AT1 and ACE1 mRNA (qRT-PCR) in aortas of angiotensin II-infusion mice. Type of data set: in vivo. Here is the method:
as §1, §4

The IC50 is the concentration that gives 50% inhibition. A low value points to greater potency in that assay.

T2 sequence (Q9BY41 whole entry): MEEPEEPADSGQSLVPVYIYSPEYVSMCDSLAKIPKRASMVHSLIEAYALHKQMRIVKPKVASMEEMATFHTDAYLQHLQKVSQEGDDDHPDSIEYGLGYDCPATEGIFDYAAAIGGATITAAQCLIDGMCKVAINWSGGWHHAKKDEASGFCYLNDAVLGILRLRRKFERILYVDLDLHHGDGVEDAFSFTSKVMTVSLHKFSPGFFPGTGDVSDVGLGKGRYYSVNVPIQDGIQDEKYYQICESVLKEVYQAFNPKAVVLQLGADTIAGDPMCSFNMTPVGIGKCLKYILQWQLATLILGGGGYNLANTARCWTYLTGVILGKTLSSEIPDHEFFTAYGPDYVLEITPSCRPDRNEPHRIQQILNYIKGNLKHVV
T4 sequence (Q8WUI4 whole entry): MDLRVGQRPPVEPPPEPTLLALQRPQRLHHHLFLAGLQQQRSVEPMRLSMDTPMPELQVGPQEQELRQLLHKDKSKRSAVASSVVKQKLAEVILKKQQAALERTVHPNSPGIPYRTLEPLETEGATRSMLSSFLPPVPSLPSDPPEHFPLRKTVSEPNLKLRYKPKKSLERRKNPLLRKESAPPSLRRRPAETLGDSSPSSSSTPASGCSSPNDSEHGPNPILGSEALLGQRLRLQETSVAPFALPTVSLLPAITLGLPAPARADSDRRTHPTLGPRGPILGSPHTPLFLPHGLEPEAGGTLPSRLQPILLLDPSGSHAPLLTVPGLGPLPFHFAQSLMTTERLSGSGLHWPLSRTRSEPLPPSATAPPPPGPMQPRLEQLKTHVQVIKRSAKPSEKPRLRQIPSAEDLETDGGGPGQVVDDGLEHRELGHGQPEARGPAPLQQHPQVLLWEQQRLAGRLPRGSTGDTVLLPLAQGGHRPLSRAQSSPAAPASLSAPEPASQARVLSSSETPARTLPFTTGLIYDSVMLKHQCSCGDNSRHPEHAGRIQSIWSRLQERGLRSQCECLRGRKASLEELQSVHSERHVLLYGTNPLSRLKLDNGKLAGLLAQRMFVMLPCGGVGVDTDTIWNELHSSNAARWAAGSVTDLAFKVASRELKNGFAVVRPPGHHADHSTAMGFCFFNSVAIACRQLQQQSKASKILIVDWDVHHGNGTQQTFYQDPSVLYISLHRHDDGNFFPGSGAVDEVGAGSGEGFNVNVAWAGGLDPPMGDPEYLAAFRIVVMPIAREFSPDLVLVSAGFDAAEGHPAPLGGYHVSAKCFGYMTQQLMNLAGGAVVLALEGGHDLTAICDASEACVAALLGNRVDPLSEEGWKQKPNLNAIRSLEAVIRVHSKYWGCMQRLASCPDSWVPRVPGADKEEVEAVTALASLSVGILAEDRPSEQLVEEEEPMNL
T5 sequence (Q13547 whole entry): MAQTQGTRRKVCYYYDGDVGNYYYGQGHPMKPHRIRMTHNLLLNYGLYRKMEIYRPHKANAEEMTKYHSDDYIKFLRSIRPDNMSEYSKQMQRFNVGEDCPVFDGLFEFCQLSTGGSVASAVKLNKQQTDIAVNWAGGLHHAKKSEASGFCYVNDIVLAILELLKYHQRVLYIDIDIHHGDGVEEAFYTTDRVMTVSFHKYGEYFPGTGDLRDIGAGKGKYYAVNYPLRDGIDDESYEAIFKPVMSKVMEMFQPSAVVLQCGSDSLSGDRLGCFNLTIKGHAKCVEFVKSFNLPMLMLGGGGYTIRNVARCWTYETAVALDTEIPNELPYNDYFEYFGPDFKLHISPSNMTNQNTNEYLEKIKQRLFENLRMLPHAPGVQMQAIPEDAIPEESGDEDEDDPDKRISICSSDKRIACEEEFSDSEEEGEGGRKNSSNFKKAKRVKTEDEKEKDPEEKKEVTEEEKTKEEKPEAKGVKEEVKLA
T6 sequence (Q92769 whole entry): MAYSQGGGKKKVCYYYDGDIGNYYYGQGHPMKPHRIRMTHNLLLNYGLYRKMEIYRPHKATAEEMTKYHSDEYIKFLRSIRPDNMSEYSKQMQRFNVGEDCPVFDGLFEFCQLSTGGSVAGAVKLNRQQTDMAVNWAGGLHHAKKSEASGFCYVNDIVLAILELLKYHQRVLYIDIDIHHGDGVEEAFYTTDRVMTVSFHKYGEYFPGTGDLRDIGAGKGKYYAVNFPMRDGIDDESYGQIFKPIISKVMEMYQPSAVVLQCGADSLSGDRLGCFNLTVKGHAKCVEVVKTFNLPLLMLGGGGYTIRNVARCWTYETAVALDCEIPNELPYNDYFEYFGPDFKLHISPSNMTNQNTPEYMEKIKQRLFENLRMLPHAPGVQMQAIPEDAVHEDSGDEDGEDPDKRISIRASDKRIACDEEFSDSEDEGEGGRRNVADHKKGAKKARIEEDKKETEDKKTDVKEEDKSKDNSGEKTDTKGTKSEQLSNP
T1 sequence (Q9UBN7 whole entry): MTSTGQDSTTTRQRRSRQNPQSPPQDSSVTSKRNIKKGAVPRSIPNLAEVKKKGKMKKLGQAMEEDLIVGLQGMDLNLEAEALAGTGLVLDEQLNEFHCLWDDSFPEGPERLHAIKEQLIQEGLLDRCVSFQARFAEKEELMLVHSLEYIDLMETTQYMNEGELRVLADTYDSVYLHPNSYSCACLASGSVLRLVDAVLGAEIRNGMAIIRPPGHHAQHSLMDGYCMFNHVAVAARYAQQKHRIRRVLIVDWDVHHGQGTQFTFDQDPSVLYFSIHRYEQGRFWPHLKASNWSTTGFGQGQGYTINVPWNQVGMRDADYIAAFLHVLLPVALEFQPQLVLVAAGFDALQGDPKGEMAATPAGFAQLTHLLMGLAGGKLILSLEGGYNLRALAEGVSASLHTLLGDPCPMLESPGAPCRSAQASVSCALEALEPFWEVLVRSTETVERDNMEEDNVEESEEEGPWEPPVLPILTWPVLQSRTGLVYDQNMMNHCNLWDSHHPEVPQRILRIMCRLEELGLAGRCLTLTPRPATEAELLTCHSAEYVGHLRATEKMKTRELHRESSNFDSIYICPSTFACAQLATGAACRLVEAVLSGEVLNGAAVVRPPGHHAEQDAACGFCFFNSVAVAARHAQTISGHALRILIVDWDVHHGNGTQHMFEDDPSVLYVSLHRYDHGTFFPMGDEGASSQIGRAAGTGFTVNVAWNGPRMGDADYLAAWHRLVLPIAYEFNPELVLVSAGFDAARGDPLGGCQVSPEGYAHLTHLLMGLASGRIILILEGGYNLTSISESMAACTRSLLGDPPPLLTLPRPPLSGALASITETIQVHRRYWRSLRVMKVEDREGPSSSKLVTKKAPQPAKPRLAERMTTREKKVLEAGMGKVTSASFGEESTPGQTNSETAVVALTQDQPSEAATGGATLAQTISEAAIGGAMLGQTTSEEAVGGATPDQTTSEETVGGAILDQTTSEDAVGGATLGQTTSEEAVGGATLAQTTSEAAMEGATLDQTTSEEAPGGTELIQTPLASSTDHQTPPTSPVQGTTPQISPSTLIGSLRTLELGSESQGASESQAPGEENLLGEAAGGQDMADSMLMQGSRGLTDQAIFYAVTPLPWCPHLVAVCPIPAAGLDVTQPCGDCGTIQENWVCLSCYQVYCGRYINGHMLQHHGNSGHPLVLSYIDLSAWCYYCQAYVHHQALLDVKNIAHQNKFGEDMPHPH
T3 sequence (Q9UKV0 whole entry): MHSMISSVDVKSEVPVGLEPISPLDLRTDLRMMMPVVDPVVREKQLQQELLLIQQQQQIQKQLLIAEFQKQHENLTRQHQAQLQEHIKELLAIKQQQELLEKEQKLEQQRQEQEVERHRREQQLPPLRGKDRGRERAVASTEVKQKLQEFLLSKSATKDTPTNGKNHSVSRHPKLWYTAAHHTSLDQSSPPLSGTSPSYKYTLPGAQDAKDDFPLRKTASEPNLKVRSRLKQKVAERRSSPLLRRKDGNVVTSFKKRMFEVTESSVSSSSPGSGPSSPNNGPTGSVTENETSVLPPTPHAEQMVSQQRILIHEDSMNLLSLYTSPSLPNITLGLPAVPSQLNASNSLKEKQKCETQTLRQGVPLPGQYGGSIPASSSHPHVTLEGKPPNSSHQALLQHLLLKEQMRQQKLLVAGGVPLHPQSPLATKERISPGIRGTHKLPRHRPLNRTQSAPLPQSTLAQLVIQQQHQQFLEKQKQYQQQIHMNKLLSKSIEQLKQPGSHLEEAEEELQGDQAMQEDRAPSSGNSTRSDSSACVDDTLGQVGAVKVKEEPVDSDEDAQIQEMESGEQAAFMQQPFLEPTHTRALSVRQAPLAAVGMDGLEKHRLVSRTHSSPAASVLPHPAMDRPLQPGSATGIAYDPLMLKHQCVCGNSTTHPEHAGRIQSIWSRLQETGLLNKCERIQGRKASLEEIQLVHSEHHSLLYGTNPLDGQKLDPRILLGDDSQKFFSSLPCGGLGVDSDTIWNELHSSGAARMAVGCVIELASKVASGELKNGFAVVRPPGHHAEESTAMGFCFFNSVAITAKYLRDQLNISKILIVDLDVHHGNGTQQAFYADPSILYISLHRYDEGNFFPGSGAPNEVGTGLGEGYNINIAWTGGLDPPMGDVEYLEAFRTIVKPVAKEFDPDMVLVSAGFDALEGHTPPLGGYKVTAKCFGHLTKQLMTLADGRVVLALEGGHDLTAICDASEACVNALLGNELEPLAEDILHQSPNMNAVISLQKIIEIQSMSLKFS

For the compound `Cc1cc(C)cc(C(=O)NOCCCCCC(=O)NO)c1` [LMK235], the IC50 was 50 nM against HDAC6; 1120 nM on HDAC8; above 20000 nM at HDAC9; above 20000 nM against HDAC7; 30 nM against HDAC1; 55 nM against HDAC2. The “systolic BP” value in data set [1] is recorded as “sufficient to lower systolic BP”; in [3] (3 mg/kg i.p. every 3 days, 2 days after treatment), “significantly lowered”; in data set [3] (3 mg/kg i.p. every 3 days, 3 days after administration), “restored to a comparable level”. In addition, in the data set on A10 cells [2], the “cell viability (MTT)” value was “not affected”. Moreover, in [3] (1 mg/kg/day (data not shown)), the hypertension lowering effect entry is given as “did not exhibit a hypertension lowering effect”. The “duration of BP lowering effect” value in data set [3] (3 mg/kg i.p. every 3 days) worked out at 2 days. The “CaMKIIα mRNA levels in aorta” value in [4] is on record as “significantly reduced”. Further, in [4], the “E2F3 mRNA levels in aorta” value is “significantly suppressed”. The “cyclin D1 mRNA levels in aorta” value in data set [4] is “significantly suppressed”. In addition, the “p21 transcript levels in aorta” value in data set [4] was “restored the repressed p21 expression”. Besides, the “cyclin D1 mRNA levels induced by overexpression of CaMKIIα” value in the data set on A10 cells [5] (A10 cells, 1 μmol/L, 24 h) was “reduced”. Moreover, the “mRNA levels of overexpressed CaMKIIα” value with A10 cells [5] (A10 cells, 1000 nmol/L, 24 hours) is listed as “did not change”. Further, the “mRNA expression of HDAC1, 2, 3, 4, 5, 7” value with A10 cells [5] (CaMKIIα-transfected A10 cells, 1 μmol/L, 24 h) was “significantly reduced”. For the same compound, the nitric oxide production entry in the data set on HUVECs was “increased nitric oxide production”. Besides, the aortic wall thickness entry in [6] is listed as “completely inhibited the increased aortic wall thickness”. Also, the “AT1 transcript levels in aorta” value with AT1 and ACE1 mRNA (Ang II-infusion mice) is recorded as “not reduced”. Moreover, the “aortic ACE1 or AT1 expression” value with AT1 and ACE1 mRNA (either hypertension model (Ang II mice and SHRs)) is “did not affect”.
